Paper PMC4176394 (Journal of Natural Products, 2014)

Key:
[1] = test system: MDA-MB-435 (melanoma) cancer cell line; experiment: Cytotoxicity assay, MDA-MB-435 cells; assay type: cell-based, human; settings: for factor by which activity is reduced relative to compound 5: MDA-MB-435 cells, versus 5; for IC50: Homo sapiens, MDA-MB-435, 72 h, read-out: IC50 values, MDA-MB-435
[2] = test system: HT-29 (colon) cancer cell line; experiment: Cytotoxicity assay, HT-29 cells; assay type: cell-based, human; settings: for IC50: Homo sapiens, HT-29, 72 h, read-out: IC50 values, HT-29
Stability in solution = assay type: physicochemical; settings: CDCl3

Structure (SMILES) | factor by which activity is reduced relative to compound 5 [1] | IC50 [2] [µM] | IC50 [1] [µM] | further results
COc1cc(O)c(Cl)c2c1C(=O)O[C@@H](C)CCC(=O)CC/C=C/C(=O)C2 [Compound 1, greensporone A] | ~5 | – | – | –
COc1cc(O)c(Cl)c2c1C(=O)O[C@@H](C)CCC(=O)CC/C=C\C(=O)C2 [Compound 2, greensporone B] | – | > 20 | > 20 | –
COc1cc(O)c(Cl)c2c1C(=O)O[C@@H](C)CCC(=O)CCCCC(=O)C2 [Compound 3, 8,9-dihydrogreensporone A] | – | > 20 | > 20 | –
COc1cc(O)cc2c1C(=O)O[C@@H](C)CCC(=O)CC/C=C/C(=O)C2 [Compound 4, dechlorogreensporone A] | ~5 | – | – | –
C[C@H]1CCCCC/C=C/C(=O)Cc2cc(O)cc(O)c2C(=O)O1 [Compound 6, O-desmethylgreensporone C] | 5 | – | – | factor by which activity is reduced relative to compound 5 ([2]; HT-29 cells, versus 5): 2
COc1cc(O)cc2c1C(=O)O[C@@H](C)CCCCCCCC(=O)C2 [Compound 7, 8,9-dihydrogreensporone C] | – | > 20 | > 20 | –
COc1cc(O)c(Cl)c2c1C(=O)O[C@@H](C)CC[C@@H](O)CC/C=C/C(=O)C2 [Compound 8, greensporone D] | – | – | – | stability in solution (Stability in solution): converted to 12
COc1cc(O)c(Cl)c2c1C(=O)O[C@@H](C)CC[C@@H](O)CC/C=C\C(=O)C2 [Compound 9, greensporone E] | – | > 20 | > 20 | –
COc1cc(O)cc2c1C(=O)O[C@@H](C)CC[C@@H](O)CC/C=C/C(=O)C2 [Compound 10, dechlorogreensporone D] | ~4 | – | – | –
COc1cc(O)c(Cl)c2c1C(=O)O[C@@H](C)CC[C@@H](O)CCCCC(=O)C2 [Compound 11, 8,9-dihydrogreensporone D] | – | > 20 | > 20 | –
COc1cc(O)cc2c1C(=O)O[C@@H](C)CC[C@H]1CC[C@@H](CC(=O)C2)O1 [Compound 13, dechlorogreensporone F] | – | > 20 | > 20 | –
COc1cc(O)cc2c1C(=O)O[C@@H](C)CC[C@H]1CC[C@H](CC(=O)C2)O1 [Compound 14, greensporone G] | – | > 20 | > 20 | –
